Experimental data published in patent publication US11214803B2, “Modulators of YAP1 expression” (Ionis Pharmaceuticals, Inc., priority 2019, dated 2022).
pIC50: −log10 of the molar value. Strand notation (5' to 3'): a small letter for the sugar, then the base; units joined by * are phosphorothioate-linked, units joined directly phosphodiester-linked; [ ] holds rarer units or linkages, { } end groups; capitals alone tell only the bases. k = constrained ethyl (cEt); [5mC] = 5-methylcytosine; d = 2'-deoxy (DNA)

Tested on: Yap1 mRNA
Assay: Dose-dependent inhibition of human Yap1 in A-431 cells (Example 8, 10,000 cells per well, RTS4814)
Format: cell-based
Conditions: free uptake, approximately 48 hours, RTS4814; for Yap1 mRNA, % UTC: A-431 cells, 10,000 cells per well; for pIC50: A-431 cells, linear regression on log/linear plot
Description: Modified oligonucleotides described in the studies above were tested at various doses in A-431 cells. Cultured A-431 cells at a density of 10,000 cells per well were treated using free uptake with modified oligonucleotides diluted to concentrations described in the tables below. After approximately 48 hours, Yap1 mRNA levels were measured as previously described using the Human Yap1 primer-probe set RTS4814. Yap1 mRNA levels were normalized to total RNA content, as measured by RIBOGREEN®. Results are presented in the tables below as percent control of the amount of Yap1 mRNA relative to untreated control cells (% UTC). IC50s were calculated using a linear regression on a log/linear plot of the data in excel.

1074368 (kG*kA*kT*dA*dG*dT*dA*dT*d[5mC]*dA*d[5mC]*d[5mC]*dT*kG*kT*kA; antisense) [compound 1074368]
Yap1 mRNA, % UTC (31.3 nM): 67 % UTC | Yap1 mRNA, % UTC (125.0 nM): 34 % UTC | Yap1 mRNA, % UTC (500.0 nM): 15 % UTC | Yap1 mRNA, % UTC (2000.00 nM): 10 % UTC | pIC50: 7.00

1074566 (DNA CACTGAATTCCAATCG; 3-10-3 cEt gapmer, chemistry not fully specified) [compound 1074566]
Yap1 mRNA, % UTC (31.3 nM): 41 % UTC | Yap1 mRNA, % UTC (125.0 nM): 12 % UTC | Yap1 mRNA, % UTC (500.0 nM): 5 % UTC | Yap1 mRNA, % UTC (2000.00 nM): 3 % UTC | pIC50: > 7.70

1075842 (kG*kT*kA*dT*dT*dT*dA*dG*dG*dT*dA*d[5mC]*dT*k[5mC]*kA*kG; antisense) [compound 1075842]
Yap1 mRNA, % UTC (31.3 nM): 27 % UTC | Yap1 mRNA, % UTC (125.0 nM): 7 % UTC | Yap1 mRNA, % UTC (500.0 nM): 3 % UTC | Yap1 mRNA, % UTC (2000.00 nM): 3 % UTC | pIC50: > 7.70

1074274 (antisense kG*kT*kT*d[5mC]*dT*dT*dA*dT*dG*dG*dT*dT*dT*kA*kT*kA) [compound 1074274]
Yap1 mRNA, % UTC (31.3 nM): 42 % UTC | Yap1 mRNA, % UTC (125.0 nM): 14 % UTC | Yap1 mRNA, % UTC (500.0 nM): 7 % UTC | Yap1 mRNA, % UTC (2000.00 nM): 5 % UTC | pIC50: > 7.70

1076523 (kA*kT*kT*dT*dA*dT*dA*dT*d[5mC]*dA*dG*dG*dT*k[5mC]*kA*kA; antisense) [compound 1076523]
Yap1 mRNA, % UTC (31.3 nM): 67 % UTC | Yap1 mRNA, % UTC (125.0 nM): 38 % UTC | Yap1 mRNA, % UTC (500.0 nM): 18 % UTC | Yap1 mRNA, % UTC (2000.00 nM): 7 % UTC | pIC50: 7.00

1076064 (kT*kA*kT*dG*dA*dA*d[5mC]*dA*dA*dT*dG*dT*dA*k[5mC]*kT*k[5mC]; antisense) [compound 1076064]
Yap1 mRNA, % UTC (31.3 nM): 68 % UTC | Yap1 mRNA, % UTC (125.0 nM): 26 % UTC | Yap1 mRNA, % UTC (500.0 nM): 10 % UTC | Yap1 mRNA, % UTC (2000.00 nM): 5 % UTC | pIC50: 7.00

1074626 (DNA k[5mC]*kT*kG*dT*dT*dA*dT*dG*dA*dA*d[5mC]*d[5mC]*d[5mC]*kT*kT*kG) [compound 1074626]
Yap1 mRNA, % UTC (31.3 nM): 54 % UTC | Yap1 mRNA, % UTC (125.0 nM): 18 % UTC | Yap1 mRNA, % UTC (500.0 nM): 8 % UTC | Yap1 mRNA, % UTC (2000.00 nM): 5 % UTC | pIC50: > 7.70

1075778 (k[5mC]*kA*kT*dT*dT*dA*dT*dA*d[5mC]*d[5mC]*dA*dG*dG*k[5mC]*kA*k[5mC]; antisense) [compound 1075778]
Yap1 mRNA, % UTC (31.3 nM): 56 % UTC | Yap1 mRNA, % UTC (125.0 nM): 29 % UTC | Yap1 mRNA, % UTC (500.0 nM): 10 % UTC | Yap1 mRNA, % UTC (2000.00 nM): 5 % UTC | pIC50: 7.52

1076491 (kA*kG*k[5mC]*d[5mC]*dA*dA*dA*dA*dT*dA*dG*dG*dT*kG*kA*kG; antisense) [compound 1076491]
Yap1 mRNA, % UTC (31.3 nM): 81 % UTC | Yap1 mRNA, % UTC (125.0 nM): 45 % UTC | Yap1 mRNA, % UTC (500.0 nM): 21 % UTC | Yap1 mRNA, % UTC (2000.00 nM): 10 % UTC | pIC50: 7.00

1075968 (kT*kA*kT*dT*dT*dA*dA*dG*d[5mC]*d[5mC]*dA*dA*dA*k[5mC]*k[5mC]*kG; antisense) [compound 1075968]
Yap1 mRNA, % UTC (31.3 nM): 74 % UTC | Yap1 mRNA, % UTC (125.0 nM): 37 % UTC | Yap1 mRNA, % UTC (500.0 nM): 11 % UTC | Yap1 mRNA, % UTC (2000.00 nM): 5 % UTC | pIC50: 7.00

1074628 (DNA kG*k[5mC]*k[5mC]*dT*dG*dT*dT*dA*dT*dG*dA*dA*d[5mC]*k[5mC]*k[5mC]*kT) [compound 1074628]
Yap1 mRNA, % UTC (31.3 nM): 29 % UTC | Yap1 mRNA, % UTC (125.0 nM): 13 % UTC | Yap1 mRNA, % UTC (500.0 nM): 7 % UTC | Yap1 mRNA, % UTC (2000.00 nM): 6 % UTC | pIC50: > 7.70

1074851 (kA*kT*kT*dG*dT*dT*dA*dT*dG*dA*dT*dA*dG*kG*k[5mC]*kA; antisense) [compound 1074851]
Yap1 mRNA, % UTC (31.3 nM): 51 % UTC | Yap1 mRNA, % UTC (125.0 nM): 19 % UTC | Yap1 mRNA, % UTC (500.0 nM): 9 % UTC | Yap1 mRNA, % UTC (2000.00 nM): 7 % UTC | pIC50: > 7.70

1074758 (k[5mC]*kA*kG*dT*dT*dA*dA*dG*d[5mC]*dA*d[5mC]*dT*dT*kT*kT*kA; antisense) [compound 1074758]
Yap1 mRNA, % UTC (31.3 nM): 74 % UTC | Yap1 mRNA, % UTC (125.0 nM): 23 % UTC | Yap1 mRNA, % UTC (500.0 nM): 8 % UTC | Yap1 mRNA, % UTC (2000.00 nM): 5 % UTC | pIC50: 7.00

1075749 (kA*kA*kT*dT*dA*dT*dG*dA*dA*dT*dG*dA*dT*kG*kG*kG; antisense) [compound 1075749]
Yap1 mRNA, % UTC (31.3 nM): 46 % UTC | Yap1 mRNA, % UTC (125.0 nM): 22 % UTC | Yap1 mRNA, % UTC (500.0 nM): 7 % UTC | Yap1 mRNA, % UTC (2000.00 nM): 4 % UTC | pIC50: > 7.70

1074443 (kT*k[5mC]*kA*dG*dA*d[5mC]*d[5mC]*dA*dG*dT*dA*dA*dA*kT*k[5mC]*kA; antisense) [compound 1074443]
Yap1 mRNA, % UTC (31.3 nM): 69 % UTC | Yap1 mRNA, % UTC (125.0 nM): 35 % UTC | Yap1 mRNA, % UTC (500.0 nM): 14 % UTC | Yap1 mRNA, % UTC (2000.00 nM): 8 % UTC | pIC50: 7.00

1074560 (DNA k[5mC]*k[5mC]*kA*dA*dT*d[5mC]*dG*dA*dG*dA*d[5mC]*dT*dT*kA*kA*kA) [compound 1074560]
Yap1 mRNA, % UTC (31.3 nM): 50 % UTC | Yap1 mRNA, % UTC (125.0 nM): 16 % UTC | Yap1 mRNA, % UTC (500.0 nM): 6 % UTC | Yap1 mRNA, % UTC (2000.00 nM): 4 % UTC | pIC50: > 7.70

1074409 (kG*kG*kA*dT*dT*dA*dA*dA*dG*dT*dA*dT*d[5mC]*kT*kT*kG; antisense) [compound 1074409]
Yap1 mRNA, % UTC (31.3 nM): 60 % UTC | Yap1 mRNA, % UTC (125.0 nM): 30 % UTC | Yap1 mRNA, % UTC (500.0 nM): 13 % UTC | Yap1 mRNA, % UTC (2000.00 nM): 7 % UTC | pIC50: 7.40

1074594 (DNA kT*kA*kG*dG*dA*dG*d[5mC]*dA*dA*dG*dT*d[5mC]*dT*kT*kG*kT) [compound 1074594]
Yap1 mRNA, % UTC (31.3 nM): 53 % UTC | Yap1 mRNA, % UTC (125.0 nM): 23 % UTC | Yap1 mRNA, % UTC (500.0 nM): 10 % UTC | Yap1 mRNA, % UTC (2000.00 nM): 5 % UTC | pIC50: > 7.70

1075784 (kA*kT*kT*dT*dT*dA*dT*dA*dG*dG*dG*d[5mC]*d[5mC]*kA*kT*kT; antisense) [compound 1075784]
Yap1 mRNA, % UTC (31.3 nM): 54 % UTC | Yap1 mRNA, % UTC (125.0 nM): 18 % UTC | Yap1 mRNA, % UTC (500.0 nM): 5 % UTC | Yap1 mRNA, % UTC (2000.00 nM): 3 % UTC | pIC50: > 7.70

1074630 (antisense kA*kG*kA*dG*dA*dT*dT*dT*dT*dA*dT*dG*d[5mC]*k[5mC]*kT*kG) [compound 1074630]
Yap1 mRNA, % UTC (31.3 nM): 57 % UTC | Yap1 mRNA, % UTC (125.0 nM): 23 % UTC | Yap1 mRNA, % UTC (500.0 nM): 10 % UTC | Yap1 mRNA, % UTC (2000.00 nM): 6 % UTC | pIC50: > 7.70

1074817 (k[5mC]*kT*kG*dA*dA*dT*dA*dT*dT*dG*d[5mC]*d[5mC]*dA*k[5mC]*k[5mC]*k[5mC]; antisense) [compound 1074817]
Yap1 mRNA, % UTC (31.3 nM): 50 % UTC | Yap1 mRNA, % UTC (125.0 nM): 22 % UTC | Yap1 mRNA, % UTC (500.0 nM): 13 % UTC | Yap1 mRNA, % UTC (2000.00 nM): 11 % UTC | pIC50: > 7.70

1076486 (kG*kA*kA*dA*d[5mC]*dG*dA*dA*dA*d[5mC]*dG*dG*dG*kA*kA*kA; antisense) [compound 1076486]
Yap1 mRNA, % UTC (31.3 nM): 84 % UTC | Yap1 mRNA, % UTC (125.0 nM): 45 % UTC | Yap1 mRNA, % UTC (500.0 nM): 16 % UTC | Yap1 mRNA, % UTC (2000.00 nM): 6 % UTC | pIC50: 7.00

1075112 (kA*kT*kA*dT*dA*dG*dG*dA*dA*dT*dA*dT*dG*kG*kG*kT; antisense) [compound 1075112]
Yap1 mRNA, % UTC (31.3 nM): 87 % UTC | Yap1 mRNA, % UTC (125.0 nM): 36 % UTC | Yap1 mRNA, % UTC (500.0 nM): 13 % UTC | Yap1 mRNA, % UTC (2000.00 nM): 7 % UTC | pIC50: 7.00

1074411 (kT*kG*kT*dG*dA*dA*dA*dG*dA*dG*dG*dT*d[5mC]*kA*kG*k[5mC]; antisense) [compound 1074411]
Yap1 mRNA, % UTC (31.3 nM): 47 % UTC | Yap1 mRNA, % UTC (125.0 nM): 20 % UTC | Yap1 mRNA, % UTC (500.0 nM): 8 % UTC | Yap1 mRNA, % UTC (2000.00 nM): 6 % UTC | pIC50: > 7.70
